This is an account of results in patent US9896441B2 (Lycera Corporation, priority 2014, dated 2018).

Structures are written as SMILES.

The target of assay [1] is T1, Gal4-RORγ-LBD (Homo sapiens, UniProt P51449).
T1 construct: expressed in transfected cells
T1 sequence (P51449 269-508 limits assumed): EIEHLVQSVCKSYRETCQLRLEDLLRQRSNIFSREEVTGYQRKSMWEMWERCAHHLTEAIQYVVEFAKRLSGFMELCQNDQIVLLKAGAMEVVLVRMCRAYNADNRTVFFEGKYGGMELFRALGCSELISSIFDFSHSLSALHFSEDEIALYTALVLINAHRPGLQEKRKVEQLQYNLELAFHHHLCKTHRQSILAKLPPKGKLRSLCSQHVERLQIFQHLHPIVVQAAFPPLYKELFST
The experiment in a line: Gal4-RORγ Luciferase Reporter Assay in HEK-293T Cells. The assay is classed as cell-based. The conditions noted are these: HEK-293 cells; for Gal4-RORγ Assay Max Response: maximum response. As to the method: Assay procedures and results are described below.
In the following protocol, HEK-293 cells were transfected with a construct comprising the Gal4 DNA binding domain fused to the ligand binding domain of RORγ (Gal4-RORγ-LBD) in a pcDNA3.1neo plasmid, and also with a reporter construct comprising pGL4.31 Gal4-luciferase (Promega). Control cells were prepared similarly using empty pcDNA3.1neo and pGL4.31 vectors.
Trans-IT reagent (Mirus, 60 μL) at room temperature was added drop wise to OptiMEM (Invitrogen, 1.5 ml). This reagent mixture was mixed by inversion then incubated for 5 to 30 minutes at room temperature. It then was added to a solution of both expression vectors (5 μg each), mixed, and incubated at room temperature for about 20 minutes. HEK-293 cells were harvested from incubation flasks by removing the media, treating with TrypLE Express (Invitrogen), and incubating until the cells detached from the bottom of the flask (approximately 2-5 minutes). 10 Million cells were collected by centrifugation and re-suspended in 10 mL of Dulbecco's Modified Eagle Medium, High Glucose (DMEM, Invitrogen) containing 10% Fetal Bovine Serum and 100 IU each of penicillin and streptomycin. The re-suspended cells and the transfection mixture were added to a T75 flask, mixed and incubated overnight at 37° C. and 5% CO2.
The cells were harvested as described above, counted, and centrifuged to obtain the desired number of cells, then re-suspended in complete growth media at 0.75×10^6 cells/mL. The RORγ antagonist, ursolic acid, was added to the cells at a final concentration of […]. Cells were plated at 20 µL of cell suspension/well (10,000-15,000 cells/well) in white tissue culture treated 384 well plates. Test compounds were dissolved at 10 mM in DMSO then diluted into complete growth medium to 5× the final intended test concentration. These drug stock solutions, 5 µL/well were added to the tissue culture plate. The final DMSO concentration was 0.2%. The plates were briefly centrifuged then incubated overnight at 37° C. and 5% CO2. To conduct the assay, the tissue culture plates were allowed to equilibrate to room temperature and One-Glo luciferase reagent (Promega, 25 µL/well) was added. The plates were briefly centrifuged then incubated at room temperature for 10 minutes. The luciferase intensity was read on an Envision plate reader (Perkin Elmer). […] The luciferase signal in the absence of ursolic acid or test compound is defined at 100. The Max Response is the upper plateau in the signal as determined by line-fit using a 4-parameter logistic model in PRISM (GraphPad).
(In general: In a reporter assay the amount or activity of a reporter protein is the signal.)

The target in assay [2] is T2, RORγ-LBD (Homo sapiens, UniProt P51449).
T2 construct: made in house; host or cells: SF9 cells (baculovirus); used as diluted lysate
T2 sequence (P51449 269-508 limits assumed): T1 sequence (P51449 269-508 limits assumed)
The assay is described as follows: RORγ-Ligand Binding Domain (LBD) TR-FRET Assay.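 As to TR-FRET Assay Max Response: 665/615 nm signal ratio set to 100 without ursolic acid or test compound.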 The conditions noted are these: for TR-FRET Assay Max Response: maximum response. The class given is biochemical. The essentials: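 TR-FRET read-out using a biotin-tagged SRC1 coactivator LXXLL peptide (200 nM final), with the antagonist ursolic acid present at 2 μM final. Receptor is His-tagged LBD expressed in SF9 cells, ~3 nM final in pH 7.0 Tris/KCl/EDTA/DTT/BSA buffer; compounds in 1% DMSO final.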
On the technique in general: In TR-FRET formats the signal depends on donor and acceptor labels being close together.

Where [3] appears, read: ursolic acid present, luciferase readout.
The mark [4] stands for this setting: with 2 μM ursolic acid (RORγ antagonist), highest test concentration 10 μM.
Where [5] appears, read: luciferase reporter, with ursolic acid.
The mark [6] stands for this setting: luciferase reporter, in presence of ursolic acid.

The EC50 is the concentration giving half of the maximal effect. Turning to `CCOC(=O)[C@@H]1Cc2ccc(OCc3c(F)cccc3Cl)cc2N(S(=O)(=O)c2ccc(F)c(OC)c2)[C@@H]1C`, the EC50 was 500 to 5000 nM in assay [1] (setting [3]) and less than 500 nM in assay [2] (setting [4]).

As for `CCOc1nn(CC)cc1S(=O)(=O)N1CC(C(=O)O)Cc2ccc(OCc3c(F)cccc3Cl)cc21` (stereo not shown), the values for the half-maximal effective concentration (EC50) in assay [1] (setting [3]) and in assay [2] (setting [4]) were greater than 10000 nM and less than 500 nM, respectively.

On to `O=C(O)C1Cc2ccc(OCc3c(F)cccc3Cl)cc2N(S(=O)(=O)c2cccc(C(F)(F)F)c2)C1` (stereo not shown), for which the EC50 in assay [1] (setting [3]) is 500 to 5000 nM; in assay [2] (setting [4]), less than 500 nM.

Turning to `O=C(O)CC[C@H]1CN(S(=O)(=O)c2cccc(C(F)(F)F)c2)c2cc(CCc3c(F)cccc3Cl)ccc2O1`, the EC50 in assay [1] (setting [3]) was 500 to 5000 nM; in assay [2] (setting [4]), less than 500 nM.

As to `C/C(=C\c1ccc2c(c1)N(S(=O)(=O)c1cccc(C(F)(F)F)c1)CC(C(=O)O)C2)c1c(F)cccc1Cl` (stereo not shown), the EC50 in assay [1] (setting [3]) is 500 to 5000 nM; in assay [2] (setting [4]), less than 500 nM.

With `CCOC(=O)C1Cc2ccc(CCc3c(F)cccc3Cl)cc2N(S(=O)(=O)c2cccc(C(F)(F)F)c2)C1` (stereo not shown), the EC50 in assay [1] (setting [3]) and in assay [2] (setting [4]) was less than 500 nM in each case.

Consider `N#CCC[C@H]1CN(S(=O)(=O)c2cccc(C(F)(F)F)c2)c2cc(CCc3c(F)cccc3Cl)ccc2O1`, for which the EC50 in assay [1] (setting [3]) and in assay [2] (setting [4]) was less than 500 nM throughout.

As for `C/C(=C\c1ccc2c(c1)N(S(=O)(=O)c1cccc(C(F)(F)F)c1)C[C@H](CCC#N)O2)c1c(F)cccc1Cl`, the 50% effective concentration (EC50) in assay [1] (setting [3]) and in assay [2] (setting [4]) was less than 500 nM throughout.

For `O=C(O)C[C@H]1CN(S(=O)(=O)c2cccc(C(F)(F)F)c2)c2cc(COc3c(F)cccc3Cl)ccc2O1`, the 50% effective concentration (EC50) was 500 to 5000 nM in assay [1] (setting [3]) and less than 500 nM in assay [2] (setting [4]).

As for `O=S(=O)(c1cccc(C(F)(F)F)c1)N1C[C@H](CCO)Oc2ccc(COc3c(F)cccc3Cl)cc21`, the EC50 in assay [1] (setting [3]) is 500 to 5000 nM; in assay [2] (setting [4]), less than 500 nM.

As to `C[C@H]1CN(S(=O)(=O)c2cccc(C(F)(F)F)c2)c2cc(COc3c(F)cccc3Cl)ccc2O1`, the figures for the EC50 in assay [1] (setting [3]) and in assay [2] (setting [4]) were 5000 to 10000 nM and less than 500 nM, respectively.

As for `C[C@H]1CN(S(=O)(=O)c2ccc(F)cc2)c2cc(COc3c(F)cccc3Cl)ccc2O1`, the figures for the EC50 in assay [1] (setting [3]) and in assay [2] (setting [4]) were 5000 to 10000 nM and less than 500 nM, respectively.

Consider `CCOC(=O)[C@@H]1Cc2ccc(OC3CCc4ccccc43)cc2N(S(=O)(=O)c2ccc(F)c(OC)c2)[C@@H]1C` (mixture of isomers) [Example 20, (2R,3R)-Ethyl 7-((2,3-dihydro-1H-inden-1-yl)oxy)-1-((4-fluoro-3-methoxyphenyl)sulfonyl)-2-methyl-1,2,3,4-tetrahydroquinoline-3-carboxylate], for which the concentration giving a half-maximal response (EC50) in assay [1] (setting [5]) and in assay [2] (RORγ-LBD TR-FRET) was less than 500 nM each time.

As to `COc1cc(S(=O)(=O)N2c3cc(OC4CCc5ccccc54)ccc3C[C@@H](C(=O)O)[C@H]2C)ccc1F` (mixture of isomers) [Example 22, (2R,3R)-7-((2,3-Dihydro-1H-inden-1-yl)oxy)-1-((4-fluoro-3-methoxy-phenyl)sulfonyl)-2-methyl-1,2,3,4-tetrahydroquinoline-3-carboxylic acid], the concentration for a half-maximal effect (EC50) was 500 to 5000 nM in assay [1] (setting [5]) and less than 500 nM in assay [2] (RORγ-LBD TR-FRET).

For the compound `COc1cc(S(=O)(=O)N2c3cc(/C=C/c4c(F)cccc4Cl)ccc3C[C@@H](O)[C@H]2C)ccc1F` (racemic) [Example 168, (2R,3R)-7-((E)-2-Chloro-6-fluorostyryl)-1-((4-fluoro-3-methoxyphenyl)sulfonyl)-2-methyl-1,2,3,4-tetrahydroquinolin-3-ol], in assay [1] (setting [6]), the EC50 was less than 500 nM and the “Gal4-RORγ Assay Max Response” value was “* (a value in the range of 30 to 90)”. In assay [2] (RORγ-LBD TR-FRET assay), the half-maximal effective concentration (EC50) was less than 500 nM and the “TR-FRET Assay Max Response” value is reported as “*** (a value in the range of greater than 150 to 200)”.

With `COc1cc(S(=O)(=O)N2c3cc(/C=C(\C)c4c(F)cccc4Cl)ccc3C[C@@H](O)[C@H]2C)ccc1F` (racemic) [Example 169, (2R,3R)-7-((E)-2-(2-Chloro-6-fluorophenyl)prop-1-en-1-yl)-1-((4-fluoro-3-methoxyphenyl)sulfonyl)-2-methyl-1,2,3,4-tetrahydroquinolin-3-ol], in assay [1] (setting [6]), the EC50 is less than 500 nM and the “Gal4-RORγ Assay Max Response” value is “* (a value in the range of 30 to 90)”. In assay [2] (RORγ-LBD TR-FRET assay), the 50% effective concentration (EC50) was less than 500 nM and the “TR-FRET Assay Max Response” value is “*** (a value in the range of greater than 150 to 200)”.

`C[C@@H]1[C@H](O)Cc2ccc(/C=C/c3c(F)cccc3Cl)cc2N1S(=O)(=O)c1cccc(C(F)(F)F)c1` (racemic) [Example 170, (2R,3R)-7-((E)-2-Chloro-6-fluorostyryl)-2-methyl-1-((3-(trifluoromethyl)phenyl)sulfonyl)-1,2,3,4-tetrahydroquinolin-3-ol]: in assay [1] (setting [6]), the EC50 is 500 to 5000 nM and the “Gal4-RORγ Assay Max Response” value is on record as “*** (a value in the range of greater than 150 to 200)”. Besides, in assay [2] (RORγ-LBD TR-FRET assay), the concentration for a half-maximal effect (EC50) was less than 500 nM and the “TR-FRET Assay Max Response” value is “*** (a value in the range of greater than 150 to 200)”.

With `C/C(=C\c1ccc2c(c1)N(S(=O)(=O)c1cccc(C(F)(F)F)c1)[C@H](C)[C@H](O)C2)c1c(F)cccc1Cl` (racemic) [Example 171, (2R,3R)-7-((E)-2-(2-Chloro-6-fluorophenyl)prop-1-en-1-yl)-2-methyl-1-((3-(trifluoromethyl)phenyl)sulfonyl)-1,2,3,4-tetrahydroquinolin-3-ol], in assay [1] (setting [6]), the EC50 was in the range of 500 to 5000 nM and the “Gal4-RORγ Assay Max Response” value is listed as “** (a value in the range of greater than 90 to 150)”. In assay [2] (RORγ-LBD TR-FRET assay), the EC50 is less than 500 nM and the “TR-FRET Assay Max Response” value is recorded as “*** (a value in the range of greater than 150 to 200)”.

Turning to `COc1cc(S(=O)(=O)N2c3cc(/C=C/c4c(F)cccc4Cl)ccc3C[C@H](O)[C@H]2C)ccc1F` (racemic) [Example 174, rac-(2R,3S)-7-((E)-2-Chloro-6-fluorostyryl)-1-((4-fluoro-3-methoxyphenyl)sulfonyl)-2-methyl-1,2,3,4-tetrahydroquinolin-3-ol], in assay [1] (setting [6]), the concentration giving a half-maximal response (EC50) was 500 to 5000 nM and the “Gal4-RORγ Assay Max Response” value is reported as “* (a value in the range of 30 to 90)”. Moreover, in assay [2] (RORγ-LBD TR-FRET assay), the EC50 is less than 500 nM and the “TR-FRET Assay Max Response” value is reported as “** (a value in the range of greater than 90 to 150)”.

Take `COc1cc(S(=O)(=O)N2c3cc(/C=C(\C)c4c(F)cccc4Cl)ccc3C[C@H](O)[C@H]2C)ccc1F` (racemic) [Example 175, rac-(2R,3S)-7-((E)-2-(2-Chloro-6-fluorophenyl)prop-1-en-1-yl)-1-((4-fluoro-3-methoxyphenyl)sulfonyl)-2-methyl-1,2,3,4-tetrahydroquinolin-3-ol]: in assay [1] (setting [6]), the 50% effective concentration (EC50) lay in the range of 500 to 5000 nM and the “Gal4-RORγ Assay Max Response” value was “* (a value in the range of 30 to 90)”. In addition, in assay [2] (RORγ-LBD TR-FRET assay), the concentration for a half-maximal effect (EC50) is less than 500 nM and the “TR-FRET Assay Max Response” value is recorded as “** (a value in the range of greater than 90 to 150)”.

With `C/C(=C\c1ccc2c(c1)N(S(=O)(=O)c1cccc(C(F)(F)F)c1)C[C@H](CCC(=O)NCCC(=O)O)O2)c1c(F)cccc1Cl` [Example 129P, (S,E)-3-(3-(6-(2-(2-chloro-6-fluorophenyl)-prop-1-en-1-yl)-4-((3-(trifluoromethyl)phenyl)-sulfonyl)-3,4-dihydro-2H-benzo[b][1,4]oxazin-2-yl)propanamido)-propanoic acid], in assay [1] (setting [6]), the EC50 was less than 500 nM and the “Gal4-RORγ Assay Max Response” value is listed as “*** (a value in the range of greater than 150 to 200)”.

As for `COc1cc(S(=O)(=O)N2C[C@H](CCC(=O)O)Oc3ccc(/C=C(\C)C4CCCCC4)cc32)ccc1F` [Example 190, (S,E)-3-(6-(2-cyclohexylprop-1-en-1-yl)-4-((4-fluoro-3-methoxyphenyl)sulfonyl)-3,4-dihydro-2H-benzo[b][1,4]oxazin-2-yl)propanoic acid], the EC50 in assay [1] (setting [6]) is greater than 10000 nM.
